The source of these data is US11510911B2 (AJOU UNIVERSITY INDUSTRY—ACADEMIC COOPERATION FOUNDATION, priority 2017, dated 2022).

For orientation: IC50 means the concentration that inhibits the measured activity by half.

The test system of one assay is HepG2 cells. Put plainly: Cell viability (WST-1 assay), HepG2 cells. It counts as cell-based. The following applies: Homo sapiens. As for the experimental part:
(§1) Human liver cancer cells of Hep3B, Huh7, HepG2 and PLC/PRF5 were cultured in DMEM supplemented with 10% FBS, 100 U/ml penicillin and 100 μg/ml streptomycin.
(§2) A lentiviral construct expressing STAT1 shRNA, p65 shRNA and LCN2 shRNA was purchased from Sigma-Aldrich. Wild-type SULF2, SULF2-N491K, wild-type ERC1, ERC1-H721Q, wild-type NTRK3, NTRK3-N522K, wild-type SHC1 and SHC1-SHC1-P55 cDNA constructs were cloned into MCS-EF1-Puro (System Biosciences, Mountain), the lentiviral vectors for cDNA expression. All lentiviral vectors were transfected into 293 TN cells (System Biosciences) using the Lipofectamine 3000 transfection reagent (Invitrogen, Waltham, Mass., USA). Two days after lentiviral plasmid transfection, particles were collected and used to infect HCC cells. The HDD cells infected with lentivirus were selected using puromycin for 1 week.
(§3) For cell proliferation analysis, 5×10^3 cells were divided into 96-well plates and cultured in DMEM containing various concentrations of anti-cancer drugs and 5% FBS for 48 hours. Cell viability was measured through WST-1 assay (Roche, Gangnam-gu, Seoul, Korea) and four repetitions of each experiment were performed at least 3 times. Cell migration analysis was performed in a 24-well Boyden chamber (8 μm pore size; Coastal; Corning Life Sciences, Lowell, Mass.), 1×10^5 cells were suspended in serum-free 0.2 ml DMEM and added to the upper chamber inlet, and the lower chamber was filled with 0.6 ml DMEM/10% fetal bovine serum. After 6 hours, the cells on the bottom of the membrane were fixed, stained and counted at ×200 magnification with four microscopes.
(Tetrazolium assays rely on reduction of a dye to a coloured formazan, in cell work by metabolically active cells.)

The subject of another assay is Huh7 cells. Description: Cell viability (WST-1 assay), Huh7 cells. It counts as cell-based, Human. As for the experimental part:
as §1, §2, §3

The next assay has as its system LCN2 mRNA. Put plainly: LCN2 mRNA expression by qRT-PCR in Hep3B vector, SULF2-WT and SULF2-N491K cells. It counts as cell-based, Human. As for the experimental part: (§4) Each cell was collected using an RNeasy kit (Qiagen, Venlo, Netherlands) and total RNA was isolated. The mRNA was reverse-transcribed into cDNA using a PrimeScript RT kit (Takara, Shiga, Japan), and then PCR was conducted using the CFX96 Real-Time PCR Detection System (Bio-Rad Laboratories, Hercules, Calif., USA) equipped with SsoAdvanced Universal Supermixes (Bio-Rad). The analysis of each sample was run at least three times for each experiment, and the data for the number was reported in a relative quantity: Mean value (standard deviation) of 2^−ΔΔCT±S.D.

The test system of assay [1] is Hep3B cells. Description: Transwell (Boyden chamber) cell migration assay, Hep3B cells. It counts as cell-based, Human. As for the experimental part: as §3
Assay [2] deals with Hep3B cells. Put plainly: Cell viability / proliferation (WST-1 assay), Hep3B cells expressing vector, SULF2-WT or SULF2-N491K. It counts as cell-based, Human. The following applies: for cell proliferation: 0.01-10 μM. Here is the method:
as §1, §2
Then, in order to identify whether or not the SULF2 mutation changed drug susceptibility, an overexpression system for wild-type SULF2 and SULF2-N491K mutants in Hep3B cells that rarely expressed endogenous SULF2 was established (Lai J P et al., Hepatology 47: 1211-22, 2008).
as §3

The test system of assay [3] is Hep3B-SR, SULF2-WT-SR, HepG2-SR and Huh7-SR cells. Put plainly: Cell viability of sorafenib-resistant (SR) liver cancer cells. The following applies: LCN2 siRNA 24 hours, then 5 μM sorafenib 48 hours. It counts as cell-based, Human. Here is the method:
as §3
After culture for several months, the sorafenib-resistant (SR) cell lines, Vector-SR, SULF2-WT-SR and SULF2-N491K-SR were obtained.
Thus, control siRNA and siRNA for human LCN2 were purchased from Santa Cruz Biotechnology, and each cell was transfected with siRNA using a transfection reagent (Santa Cruz) according to the manufacturer's instructions.

In the next assay the test system is amphiregulin mRNA. Description: Amphiregulin mRNA level by qRT-PCR in Hep3B vector, SULF2-WT and SULF2-N491K cells. It counts as cell-based, Human. The following applies: 2 μM sorafenib, 72 hours. As for the experimental part: as §4
On the technique in general: Real-time PCR tracks product formation cycle by cycle.

The test system of the next assay is SULF2 mRNA. Put plainly: SULF2 mRNA expression by qRT-PCR in HepG2 and Huh7 cells. It counts as cell-based, Human. The following applies: sorafenib up to 10 μM for 1, 2, 4 and 12 weeks. As for the experimental part:
as §4

The next assay deals with EGFR. Put plainly: Western blotting of EGFR downstream signaling after amphiregulin treatment. It counts as cell-based, Human. The following applies: SULF2-WT cells, amphiregulin 50 ng/ml. Here is the method:
In order to prepare total cell lysate, cells were lysed in a high-salt-content lysis buffer (20 mM Tris-HCl [pH 8.0], 1% Triton X-100, 2 mM EDTA and 1 mM phenylmethylsulfonyl fluoride), incubated on ice for 20 minutes, and centrifuged for 20 minutes to remove cell debris. A total of 20 μg of total cell lysate was used for SDS-polyacrylamide gel electrophoresis, and proteins were transferred to a nitrocellulose membrane and incubated overnight with each antibody at 4° C. The membrane was then incubated at room temperature for 1 hour with a peroxidase-conjugated secondary antibody (PIERCE, Rockford, Ill., USA), and signals were detected using a chemiluminescence detection kit (PIERCE).
Thus, in order to elucidate the mechanism by which sorafenib-mediated EGFR activation is differentially regulated between SULF2-WT and SULF2-N491K, the effect of exogenous stimulation of EGFR by treatment with recombinant human amphiregulin (rhAR) on three types of cells was compared.
Background: A western blot detects proteins with antibodies after separation by electrophoresis.

As for `Nc1ncnc2c1c(-c1cccc(OCc3ccccc3)c1)cn2[C@H]1C[C@@H](CN2CCC2)C1` [AEW541], the IC50 in the assay on HepG2 cells (HepG2, HepG2 cells expressing ERC1-H721Q) turned out to be 2.63 µM; with HepG2 cells (HepG2, HepG2 cells expressing ERC1-WT) it was 4.25 µM.
Turning to `CN[C@@H](C)C(=O)N[C@H](C(=O)N1CC[C@H]2CCN(CCc3ccccc3)C[C@H]21)C1CCCCC1` [LBW242], the values for the IC50 in the assay with Huh7 cells (Huh7 cells expressing SHC1-P5S) and with Huh7 cells (Huh7 cells expressing SHC1-WT) were 2.26 µM and 4.26 µM, respectively.
Consider `N#CC(=C(/N)Sc1ccccc1N)/C(C#N)=C(/N)Sc1ccccc1N` [MEK inhibitor], for which the LCN2 expression result with LCN2 mRNA (vector or SULF2-N491K cells, U0126 10 μM, 48 hours) is “did not inhibit”.
On to `CCN(CC)CCCCNc1ncc2cc(-c3cc(OC)cc(OC)c3)c(NC(=O)NC(C)(C)C)nc2n1` [PD173074], for which, in the assay on Hep3B cells [1] (vector, SULF2-WT or SULF2-N491K cells treated with PD173074), the cell migration entry is listed as “inhibition of great migration was not found”. The cell proliferation entry is listed as “did not inhibit” with Hep3B cells [2] (SULF2-WT cells, 48 hours); “inhibited cell proliferation” in the assay with Hep3B cells [2] (vector and SULF2-N491K cells, 48 hours).
In the case of `CNC(=O)c1cc(Oc2ccc(NC(=O)Nc3ccc(Cl)c(C(F)(F)F)c3)cc2)ccn1` [Sorafenib], the “sorafenib susceptibility after LCN2 knockdown” value in assay [3] was “restoration of sorafenib susceptibility”. The “LCN2 mRNA expression” value in the assay on LCN2 mRNA (SULF2-WT cells, 2 μM sorafenib, 72 hours) is listed as “significantly induced”; in the assay on LCN2 mRNA (vector and SULF2-N491K cells, 2 μM sorafenib, 72 hours), “induced only a small amount”. Further, the IC50 in the assay with Huh7 cells (Homo sapiens, Huh-7, 48 h, Huh7 cells, NT shRNA, 48 hours) amounted to 10.2 µM; in the assay with Huh7 cells (Homo sapiens, Huh-7, 48 h, Huh7 cells, SULF2 knockdown (SULF2 shRNA), 48 hours), 6.17 µM; with Huh7 cells (Homo sapiens, Huh-7, Huh7 cells expressing NTRK3-N522K) it was 5.8 µM; in the assay on Huh7 cells (Homo sapiens, Huh-7, Huh7 cells expressing NTRK3-WT) it was 7.64 µM; in the assay on Huh7 cells (Homo sapiens, Huh-7, Huh7 cells, sorafenib in combination with 200 μM OKN-007) it was 5.06 µM; with Hep3B cells [2] (Hep3B-SULF2-WT cells), 7.51 µM. The IC50 in the assay with Hep3B cells [2] (Homo sapiens, Hep3B, 48 h, Hep3B cells expressing wild-type SULF2, sorafenib in combination with OKN-007, 48 hours) was 3.17 µM; in the assay with Hep3B cells [2] (Homo sapiens, Hep3B, 48 h, SULF2-WT cells with knockdown of LCN2 by shRNA), 3.95 µM; in the assay with Hep3B cells [2] (Homo sapiens, Hep3B, Hep3B cells expressing SULF2-N491K), 3.54 µM; with Hep3B cells [2] (Homo sapiens, Hep3B, Hep3B-SULF2-WT cells), 7.51 µM; in the assay with Hep3B cells [2] (Homo sapiens, Hep3B, Hep3B-vector cells), 3.37 µM; with HepG2 cells (HepG2, HepG2 cells, NT shRNA), 4.97 µM. The IC50 was 2.38 µM with HepG2 cells (HepG2, HepG2 cells, SULF2 knockdown (SULF2 shRNA)) and 1.76 µM with HepG2 cells (HepG2, HepG2 cells, sorafenib in combination with OKN-007). Further, in the assay on amphiregulin mRNA, the amphiregulin expression result is “significantly increased”. For the same molecule, the “susceptibility to sorafenib with OKN-007 treatment” value in the assay on Hep3B cells [2] (Hep3B vector and SULF2-N491K cells, 48 hours) is reported as “did not change”. For the same molecule, in the assay on SULF2 mRNA, the “SULF2 mRNA expression” value was “significantly increased in a time-dependent manner”.
Turning to `COc1cc2ncnc(Nc3ccc(F)c(Cl)c3)c2cc1OCCCN1CCOCC1` [gefitinib], in the assay with LCN2 mRNA (SULF2-WT cells, 48 hours, OKN-007 200 μM, gefitinib 5 μM), the “LCN2 mRNA expression” value is “significantly inhibited”. Besides, in the assay on Hep3B cells [1] (SULF2-WT cells compared with vector and SULF2-N491K cells), the cell migration result is listed as “significantly inhibited”. For the same molecule, the cell growth result in the assay with Hep3B cells [2] (SULF2-WT cells compared with vector and SULF2-N491K cells, 48 hours) was “significantly inhibited”.

B1: amphiregulin: recombinant human amphiregulin, the EGFR ligand, from R & D systems (protein, UniProt P15514 101-187, looked up)
Amphiregulin: SVRVEQVVKPPQNKTESENTSDKPKRKKKGGKNGKNRRNRKKKNPCNAEFQNFCIHGECKYIEHLEAVTCKCQQEYFGERCGEKSMK
For B1, in the assay on EGFR, the “activation of EGFR and downstream signaling pathways including STAT1 and ERK” value is “elevated activation”; the “p65 and LCN2 protein levels” value is listed as “significantly increased”.
